From US20100016319A1, “ARYLMETHYLENE UREA DERIVATIVE AND USE THEREOF” (TORAY INDUSTRIES, INC. a corporation of Japan, priority 2005, published 2010)

What was measured:
[1] = system: TNFα production in human whole blood; test: Inhibitory activity on LPS-induced TNFα production in human whole blood; format: cell-based; details: LPS stimulation, 37° C., 5 hours
Description: Inhibitory activities of the arylmethylene urea derivatives according to the present invention to the production of TNFα induced by stimulation with a lipopolysaccharide (LPS) were investigated using human whole blood.
After mixing each of the compounds of the present invention with human blood in a 96-well flat-bottom plate, the lipopolysaccharide (LPS) was added and the mixture was allowed to react at 37° C. for 5 hours. After the reaction, the resulting mixture was centrifuged at room temperature for 15 minutes, and supernatant of the resultant was recovered. For the quantification of TNFα in the supernatant, human cytokine kit (CIS biointernational) was used.

[2] = system: DSS-induced colitis; test: Dextran sulfate sodium (DSS)-induced colitis model of mice, rectal bleeding score; format: in vivo, BALB/c mice; details: 30 mg/kg orally every day from Day 27 to Day 31
Description: (§1) Female BALB/c mice (Japan SLC) of 7 to 9 weeks old were allowed to freely drink 3 w/v % dextran sulfate sodium (DSS) for 5 to 7 days, and then to freely drink sterilized distilled water for 5 days. This procedure was repeated 3 times to induce colitis. The uninduced (background) group was allowed to freely drink sterilized distilled water. The compound described in Example 2 was orally administered to the mice at a dose of 30 mg/kg every day from Day 27 to Day 31 counted from the start of the test, and rectal bleeding was scored (0: occult blood-negative, 2: occult blood-positive, 4: apparent bleeding) by using the method described by Murthy et al (see, for example, Dig Dis Sci., 38, 1722 (1993)).
(§2) On the other hand, the same test as in Example 452 was repeated except that 1-(4-(pyridin-4-yloxy)benzyl)-3-(3-t-butylisoxazol-5-yl)urea (the structural formula thereof is shown below) which is a compound included in WO 04/037789 was used in place of the compound of Example 2. The score on Day 32 (the last day of the test) of the colitis-uninduced group was 0, while the score of the colitis-induced group rose to 1.2±0.2.
as §1, with “Example 10” for “Example 2”
as §2, with “Example 453” for “Example 452”, “that 1-(4-(pyridin-4-yloxy)benzyl)-3-([…])urea” for “that 1-(4-(pyridin-4-yloxy)benzyl)-3-(3-t-butylisoxazol-5-yl)urea”, “Example 10.” for “Example 2.”

[3] = system: rhythmic bladder contractions; test: Rhythmic bladder contractions model in anesthetized rats; format: in vivo, SD rats; details: i.v., from a dose of 3 mg/kg; 10 minutes before and after administration; FIG. 1
Text: Using anesthetized rat rhythmic bladder contractions model, the inhibitory effect of the arylmethylene urea derivatives of the present invention on the detrusor hyperreflexia was investigated.
Female SD rats were anesthetized with an intraperitoneal injection of urethane (1.0 g/kg). A polyethylene tube was inserted from external urethral orifice into the bladder and the tube was fixed by ligating. The other end of the tube was equipped with a three-necked cock, and one of the necks thereof was connected to a pressure transducer for the measurement of intravesical pressure and the other neck was connected to a syringe for the infusion of physiological saline into the bladder. Thirty minutes after the surgery was completed, physiological saline in appropriate volume was infused via the tube in order to induce rhythmic bladder contractions. After stable rhythmic bladder contractions were obtained, a solution of each test compound or the solvent thereof was administered from a caudal vein in a volume of 0.5 mL/kg, and the effect on the frequency of bladder contractions was investigated. As the test compounds, the compounds of Examples 2 and 9 were used.
In each of the figures, the ordinate indicates the number of rhythmic bladder contractions for 10 minutes before and after administration of the compound.

[4] = system: cyclophosphamide-induced cystitis rats; test: Cyclophosphamide-induced overactive bladder (cystitis) model in rats, cystometrogram; format: in vivo, SD rats; details: i.v., from a dose of 3 mg/kg; FIG. 3-A
Description: Using cyclophosphamide-induced cystitis rats known as an overactive bladder (pollakiuria) model based on the hyperactivity of afferent sensory C-fibers, the effect of compounds on the cystometrograms was investigated.
Female SD rats were pre-treated with cyclophosphamide (150 mg/kg) intraperitoneally one day before (18 hours before) the assay in order to induce cystitis. On the next day, each of rats was anesthetized with an intrapertoneral injection of urethane (1.0 g/kg). Next, a small incision was formed in the hypogastrium, and both ureters were ligated, followed by forming small incision in the ureters at the side of the kidney. Then, the bladder apex was incised and a polyethylene tube filled with physiological saline was inserted and indwelled. The other end of the tube was equipped with a three-necked cock, and one of the necks thereof was connected to a pressure transducer for the measurement of intravesical pressure and the other neck was connected to an infusion pomp in order to infuse physiological saline. Thirty minutes after the surgery was completed, physiological saline was continuously infused (3.6 mL/hr) in order to obtain a continuous cystometrograms. One minute before the infusion, a solution of each test compound or the solvent thereof was administered from a caudal vein in a volume of 0.5 mL/kg. […]

SMILES: Cc1ccc(-n2nc(C(C)(C)C)cc2NC(=O)NCc2ccccc2Oc2ccnc(N3CCOCC3)n2)cc1 [Example 2, 1-(2-(2-morpholinopyrimidin-4-yloxy)benzyl)-3-(3-t-butyl-1-p-tolyl-1H-pyrazol-5-yl)urea]
- IC50 [1]: 720 nM
- amelioration of symptoms / improvement in the rectal bleeding score (in words) ([2]; Day 32): apparent amelioration of symptoms was observed
- rectal bleeding score on Day 32 (0: occult blood-negative, 2: occult blood-positive, 4: apparent bleeding) ([2]; female BALB/c mice, 3 w/v % DSS): 0.2±0.1
- effect on the number of rhythmic bladder contractions [3]: inhibited the rhythmic bladder contractions dose-dependently
- effect on the increase in the frequency of urination (voiding episodes during 20 minutes) [4]: dose-dependently reduced the increase in the frequency of urination
